According to PMC11530689, “Anti colorectal cancer activity and in silico studies of novel pyridine nortopsentin analog as cyclin dependent kinase 6 inhibitor” (Scientific Reports, 2024):

Assays:
Experiment in all cases: NCI 60 cell line screen
786-0 = format: cell-based; conditions: 786-0, Renal Cancer; single concentration 10^−5 M
Experimental: (§1) The cytotoxic activity of nortopsintin analogs (4a-4j) was determined by the national cancer institute (NCI, Bethesda, Maryland, USA) against 60 different cancer cell lines at a single concentration of (10^-5 M). For the determination of IC50 value, we used MTT assay kit (Sigma) according to the manufacturer's protocol. HCT-116 cells were seeded into a 96-well plate at a concentration of 20,000 cells/well. After 24 h, the media was aspirated and replaced with serum-free media containing serial dilutions of the 4i compound. […] The percentage of cytotoxicity was calculated using the following equation: % Cytotoxicity = [1 - ([…])] × 100.

A498 = format: cell-based; conditions: A498, Renal Cancer; single concentration 10^−5 M
Experimental: as §1

A549/ATCC = format: cell-based; conditions: Non-Small Cell Lung Cancer, single concentration 10^−5 M
Experimental: as §1

ACHN = format: cell-based; conditions: Renal Cancer, single concentration 10^−5 M
Experimental: as §1

CAKI-1 = format: cell-based; conditions: CAKI-1, Renal Cancer; single concentration 10^−5 M
Experimental: as §1

CCRF-CEM = format: cell-based; conditions: Leukemia, single concentration 10^−5 M
Experimental: as §1

COLO205 = format: cell-based; conditions: COLO205, Colon Cancer; single concentration 10^−5 M
Experimental: as §1

HCC-2998 = format: cell-based; conditions: HCC-2998, Colon Cancer; single concentration 10^−5 M
Experimental: as §1

HOP-62 = format: cell-based; conditions: HOP-62, Non-Small Cell Lung Cancer; single concentration 10^−5 M
Experimental: as §1

HOP-92 = format: cell-based; conditions: HOP-92, Non-Small Cell Lung Cancer; single concentration 10^−5 M
Experimental: as §1

HT29 = format: cell-based; conditions: HT29, Colon Cancer; single concentration 10^−5 M
Experimental: as §1

IGROV1 = format: cell-based; conditions: IGROV1, Ovarian Cancer; single concentration 10^−5 M
Experimental: as §1

KM12 = format: cell-based; conditions: KM12, Colon Cancer; single concentration 10^−5 M
Experimental: as §1

MALME-3M = format: cell-based; conditions: Melanoma, single concentration 10^−5 M
Experimental: as §1

MCF7 = format: cell-based; conditions: MCF7, Breast Cancer; single concentration 10^−5 M
Experimental: as §1

MDA-MB-231/ATCC = format: cell-based; conditions: Breast Cancer, single concentration 10^−5 M
Experimental: as §1

MDA-MB-435 = format: cell-based; conditions: MDA-MB-435, Melanoma; single concentration 10^−5 M
Experimental: as §1

NCI-H322M = format: cell-based; conditions: Non-Small Cell Lung Cancer, single concentration 10^−5 M
Experimental: as §1

NCI-H460 = format: cell-based; conditions: NCI-H460, Non-Small Cell Lung Cancer; single concentration 10^−5 M
Experimental: as §1

NCI-H522 = format: cell-based; conditions: NCI-H522, Non-Small Cell Lung Cancer; single concentration 10^−5 M
Experimental: as §1

NCI/ADR-RES = format: cell-based; conditions: Ovarian Cancer, single concentration 10^−5 M
Experimental: as §1

OVCAR-4 = format: cell-based; conditions: OVCAR-4, Ovarian Cancer; single concentration 10^−5 M
Experimental: as §1

OVCAR-5 = format: cell-based; conditions: OVCAR-5, Ovarian Cancer; single concentration 10^−5 M
Experimental: as §1

OVCAR-8 = format: cell-based; conditions: OVCAR-8, Ovarian Cancer; single concentration 10^−5 M
Experimental: as §1

PC-3 = format: cell-based; conditions: PC-3, Prostate Cancer; single concentration 10^−5 M
Experimental: as §1

RXF 393 = format: cell-based; conditions: RXF 393, Renal Cancer; single concentration 10^−5 M
Experimental: as §1

SF-295 = format: cell-based; conditions: SF-295, CNS Cancer; single concentration 10^−5 M
Experimental: as §1

SF-539 = format: cell-based; conditions: SF-539, CNS Cancer; single concentration 10^−5 M
Experimental: as §1

SK-MEL-5 = format: cell-based; conditions: SK-MEL-5, Melanoma; single concentration 10^−5 M
Experimental: as §1

SNB-19 = format: cell-based; conditions: SNB-19, CNS Cancer; single concentration 10^−5 M
Experimental: as §1

SR = format: cell-based; conditions: Leukemia, single concentration 10^−5 M
Experimental: as §1

SW-620 = format: cell-based; conditions: SW-620, Colon Cancer; single concentration 10^−5 M
Experimental: as §1

U251 = format: cell-based; conditions: U251, CNS Cancer; single concentration 10^−5 M
Experimental: as §1

UACC-257 = format: cell-based; conditions: UACC-257, Melanoma; single concentration 10^−5 M
Experimental: as §1

UACC-62 = format: cell-based; conditions: UACC-62, Melanoma; single concentration 10^−5 M
Experimental: as §1

UO-31 = format: cell-based; conditions: UO-31, Renal Cancer; single concentration 10^−5 M
Experimental: as §1

HCT-116 = format: cell-based, human; conditions: HCT-116, Colon Cancer; single concentration 10^−5 M
Experimental: as §1

| Compound | Growth % (786-0) | Growth % (A498) | Growth % (A549/ATCC) | Growth % (ACHN) | Growth % (CAKI-1) | Growth % (COLO205) | Growth % (HCC-2998) | Growth % (HOP-62) | Growth % (HOP-92) | Growth % (HT29) | Growth % (IGROV1) | Growth % (KM12) | Growth % (MALME-3M) | Growth % (MCF7) | Growth % (MDA-MB-231/ATCC) | Growth % (MDA-MB-435) | Growth % (NCI-H322M) | Growth % (NCI-H460) | Growth % (NCI-H522) | Growth % (NCI/ADR-RES) | also measured |
| --- | --- | --- | --- | --- | --- | --- | --- | --- | --- | --- | --- | --- | --- | --- | --- | --- | --- | --- | --- | --- | --- |
| N#Cc1c(-c2ccc(Br)cc2)cc(-c2c[nH]c3ccccc23)nc1-c1c[nH]c2ccccc12 [4b] | 101.55% | 95.35% | 98.58% | 99.45% | 81.43% | 111.43% | 114.86% | 98.17% | 92.57% | 107.82% | 73.65% | 99.86% | 103.25% | 85.19% | 101.07% | 108.30% | 104.62% | 106.47% | 94.73% | 99.61% | Growth % (CCRF-CEM): 102.80%; Growth % (OVCAR-4): 102.16%; Growth % (OVCAR-5): 107.40%; Growth % (OVCAR-8): 96.50%; Growth % (PC-3): 93.93%; Growth % (RXF 393): 109.74%; Growth % (SF-295): 99.37%; Growth % (SF-539): 97.32%; Growth % (SK-MEL-5): 97.46%; Growth % (SNB-19): 98.35%; Growth % (SR): 94.65%; Growth % (SW-620): 105.18%; Growth % (U251): 94.64%; Growth % (UACC-257): 107.82%; Growth % (UACC-62): 94.51%; Growth % (UO-31): 71.05%; Growth % (HCT-116): 104.37% |
| COc1cc(OC)cc(-c2cc(-c3c[nH]c4ccccc34)nc(-c3c[nH]c4ccccc34)c2C#N)c1 [4f] | 104.74% | 96.67% | 98.51% | 97.24% | 91.03% | 110.17% | 112.62% | 96.31% | 95.02% | 108.12% | 93.71% | 98.72% | 108.42% | 90.74% | 100.79% | 99.41% | 104.89% | 103.37% | 92.06% | 97.14% | Growth % (OVCAR-4): 101.53%; Growth % (OVCAR-5): 108.89%; Growth % (OVCAR-8): 102.00%; Growth % (PC-3): 93.60%; Growth % (RXF 393): 107.63%; Growth % (SF-295): 101.07%; Growth % (SF-539): 94.25%; Growth % (SK-MEL-5): 98.48%; Growth % (SNB-19): 96.57%; Growth % (SR): 81.27%; Growth % (SW-620): 102.51%; Growth % (U251): 99.96%; Growth % (UACC-257): 112.07%; Growth % (UACC-62): 93.55%; Growth % (UO-31): 71.31%; Growth % (HCT-116): 100.81% |
| N#Cc1c(-c2ccccc2)cc(-c2c[nH]c3ccccc23)nc1-c1c[nH]c2ccccc12 [4a] | 102.19% | 98.67% | 98.73% | 96.37% | 87.26% | 108.26% | 93.57% | 92.66% | 92.10% | 102.69% | 82.09% | 102.51% | 99.77% | 94.97% | 92.64% | 102.63% | 105.41% | 106.27% | 97.10% | 98.30% | Growth % (CCRF-CEM): 102.65%; Growth % (OVCAR-4): 103.65%; Growth % (OVCAR-5): 103.05%; Growth % (OVCAR-8): 98.73%; Growth % (PC-3): 92.44%; Growth % (RXF 393): 94.99%; Growth % (SF-295): 96.36%; Growth % (SF-539): 98.60%; Growth % (SK-MEL-5): 99.18%; Growth % (SNB-19): 97.62%; Growth % (SR): 96.68%; Growth % (SW-620): 101.78%; Growth % (U251): 94.26%; Growth % (UACC-257): 106.98%; Growth % (UACC-62): 94.92%; Growth % (UO-31): 68.28%; Growth % (HCT-116): 103.11% |
| N#Cc1c(-c2ccc([N+](=O)[O-])cc2)cc(-c2c[nH]c3ccccc23)nc1-c1c[nH]c2ccccc12 [4h] | 106.06% | 99.31% | 96.38% | 94.69% | 82.68% | 114.22% | 108.98% | 99.88% | 98.33% | 111.20% | 81.21% | 98.09% | 102.24% | 90.39% | 96.84% | 104.27% | 95.29% | 100.56% | 95.41% | 96.36% | Growth % (CCRF-CEM): 103.06%; Growth % (OVCAR-4): 99.28%; Growth % (OVCAR-5): 105.31%; Growth % (OVCAR-8): 98.23%; Growth % (PC-3): 93.76%; Growth % (RXF 393): 111.16%; Growth % (SF-295): 100.99%; Growth % (SF-539): 97.59%; Growth % (SK-MEL-5): 97.67%; Growth % (SNB-19): 100.62%; Growth % (SR): 84.51%; Growth % (SW-620): 105.72%; Growth % (U251): 99.87%; Growth % (UACC-257): 104.66%; Growth % (UACC-62): 85.82%; Growth % (UO-31): 70.38%; Growth % (HCT-116): 100.64% |
